Patent US20080027104A1, “Novel Crystalline Forms 2” (AstraZeneca AB, priority 2006, published 2008)

Experiments:
Assay type in all cases: physicochemical
[1] = Moisture adsorption on storage at 80% RH; settings: stored at 80% RH (ambient)
Method: (§1) The crystalline forms may be further characterised by the presence of one or more of the additional properties listed below: • (i) for Form I • (I) when characterised by thermogravimetric analysis, a weight loss of approx. 0.8% occurs in the range from 25° C. up to 205° C., and/or • (II) when characterised by differential scanning calorimetry, at a heating rate of 10° C. per minute in a closed cup with a pinhole under flowing nitrogen, a melting temperature (Tm) having an onset at about 194° C. and/or an associated endotherm of melting of about 96 J/g; and/or • (III) when stored at 80% RH (ambient) less than 0.2% moisture is adsorbed. • (i) for Form II • (I) when characterised by thermogravimetric analysis, a weight loss of approx. 0.2% occurs in the range from 25° C. up to 205° C., and/or • (II) when characterised by differential scanning calorimetry, at a heating rate of 10° C. per minute in a closed cup with a pinhole under flowing nitrogen, a melting temperature (Tm) having an onset at about 193° C. and/or an associated endotherm of melting of about 105 J/g.

[2] = Thermogravimetric analysis of crystalline form; settings: range from 25° C. up to 205° C.
Method: as §1

[3] = Thermodynamic stability of crystal form; settings: crystallised from THF/ethanol

moisture adsorbed [1]	weight loss by thermogravimetric analysis [2]	thermodynamic stability of crystal form [3]	SMILES
less than 0.2%	approx. 0.8%	–	CCOC(=O)c1cc(C#N)c(N2CCC(C(=O)NS(=O)(=O)Cc3ccccc3)CC2)nc1C [Form I, 6-(4-{[(benzylsulfonyl)amino]carbonyl}piperidin-1-yl)-5-cyano-2-methylnicotinic acid ethyl ester]
–	approx. 0.2%	thermodynamically stable form	CCOC(=O)c1cc(C#N)c(N2CCC(C(=O)NS(=O)(=O)Cc3ccccc3)CC2)nc1C [Form II, 6-(4-{[(benzylsulfonyl)amino]carbonyl}piperidin-1-yl)-5-cyano-2-methylnicotinic acid ethyl ester]
